Measurements from patent US20130261188A1, “Ibuprofen Solid Oral Dosage Composition Comprising a Methacrylic Acid Copolymer” (TEIKOKU PHARMA USA, INC., priority 2012, published 2013).
≈ marks a conversion by molar mass, not a printed value.

Experiment: Solubility of ibuprofen in simulated salivary fluid (excess ibuprofen, sonication, centrifugation, HPLC)
Format: physicochemical
Conditions: fassgf or other biorelevant, thermodynamic from solid, simulated salivary fluid (19 mM phosphate buffer, 150 mM sodium chloride, pH 6.75), sonicated approximately 1 hour, centrifuged
Method: In addition, solubility of ibuprofen was evaluated by adding an excess of ibuprofen to simulated salivary fluid and sonicating for approximately 1 hour. The solution was then centrifuged and injected onto the HPLC.

CC(C)Cc1ccc(C(C)C(=O)O)cc1 (stereo not shown) [ibuprofen, 2-(p-isobutylphenyl)propionic acid]
solubility: 1800 µg/mL (≈ 8.73 mM)
